“Also recorded” adds a separate entry of the source. Read-outs that look alike come from different tables or passages of the source.
Legend:
[1] = tested on: EFAD formation in RAW264.7 cells; test: Inhibitor study: EFAD formation in RAW264.7 cells activated with Kdo2 and IFNγ; assay type: cell-based, murine; settings: for Effect of inhibitor on EFAD-1 formation / Effect of inhibitor on EFAD-2 formation / Effect of inhibitor on EFAD-3 formation / Effect of inhibitor on EFAD-4 formation / Effect of inhibitor on EFAD-6 formation / Effect of inhibitor on EFAD-5 formation: RAW264.7 + Kdo2 + IFNγ, ↓ decrease, ↑ increase, NE (not defined in patent)
[2] = tested on: inducible nitric oxide synthase (iNOS); test: Nitrite, iNOS and Cox-2 levels in Kdo2+IFNγ-activated RAW264.7 cells; assay type: cell-based, murine; settings: for iNOS induction and accumulation of nitrite in the cell media: RAW264.7
Description: FIG. 11a-11e illustrates modulation of anti-oxidant and inflammatory responses by 17-oxoDHA and 17-oxoDPA. RAW264.7 cells were treated with increasing concentration of 17-oxoDHA and 17-oxoDPA. (a) Cells were harvested 1 h after treatment and Nrf2 levels were quantified in nuclear extracts. (b) Cells were harvested 18 h after treatment and HO-1 and Nqo1 (upper band) levels were measured by western blot. (c, d) RAW264.7 cells were treated with increasing concentration of 17-oxoDHA and 17-oxoDPA for 6 h and Kdo2+IFNγ were added. Samples were collected at 12 h. IL-6, MCP-1 and IL-10 levels were measured in the cell media by Quantikine ELISA Kit (R&D Systems) and normalized by the total protein content (c); Nitrite levels were measured in the cell media and normalized by the total protein content and iNOS and Cox-2 levels were measured in total cell lysates (d); (e) PPARγ beta-lactamase reporter assays were performed for Rosiglitazone, 17-OxoDPA, 17-OxoDHA, 15d-PGJ2, 17-hydroxyDHA, DPA, and DHA with concentrations ranging from 0.5-10,000 nM.
For activation experiments RAW 264.7 cells were seeded, incubated overnight, and treated at approximately 80% confluence with the indicated compounds 47. Non-activated controls were treated with vehicle alone. During activation, cells were maintained in an activation medium (SMEM) of Minimum Essential Medium Eagle (Cellgro, 17-305)+2% FBS supplemented with L-glutamine (584 mg/L), Na-pyruvate (110 mg/L) and Hepes (3.57 g/L, pH 7.4). For inhibition studies, inhibitors were added to the medium at the time of activation and MTT assays were used to confirm cell viability. Cells were harvested 20 h post activation (unless otherwise indicated) in 50 mM phosphate buffer (pH 7.4) and snap frozen in liquid N2. THP-1 cells were differentiated with PMA (86 nM) for 16 h, activated with IFNγ (200 U/ml) and Kdo2 lipid A (0.5 μg/ml) in RPMI+2% FBS and harvested 40 h after differentiation. For treatment with EFADs alone, 17-oxoDHA and 17-oxoDPA were added to cell culture media at the indicated concentrations and for the indicated time period. For treatment with EFADs coupled with pro-inflammatory stimulation, addition of 17-oxoDHA and 17-oxoDPA was followed by addition of Kdo2 and IFNγ at 6 h.
Protein concentrations of samples were measured by BCA assay (Pierce). The following primary antibodies were used: Nrf2 (Santa Cruz, sc-722), HO-1 (Assay Design, SPA-896), Nqo1 (Abcam, ab34173), Cox-2 (Santa Cruz, sc-1745), iNOS (BD Transduction Lab, 610332), Lamin B1 (Abcam, ab16048). Actin (detected by Sigma A2066) was used as loading control. […]
Total nitrite and nitrate concentration was measured in cell culture media by Griess reaction using the Nitrate/Nitrite Colorimetric Assay Kit (Cayman Chemical).

[3] = tested on: Nrf2-dependent anti-oxidant response pathway; test: Nrf2 nuclear accumulation and HO-1/Nqo1 expression (western blot) in RAW264.7 cells; assay type: cell-based, murine; settings: for Nrf2 nuclear accumulation: nuclear extracts, 1 h after treatment; for Expression of HO-1 and Nqo1: western blot, 18 h after treatment
rabbit GAPDH = rabbit GAPDH (Oryctolagus cuniculus, UniProt P46406); test: In vitro reaction of GAPDH with EFAD (mass spectrometry); assay type: binding; settings: Cys244, Cys149, His163, His328
Sequence of rabbit GAPDH (P46406 whole entry): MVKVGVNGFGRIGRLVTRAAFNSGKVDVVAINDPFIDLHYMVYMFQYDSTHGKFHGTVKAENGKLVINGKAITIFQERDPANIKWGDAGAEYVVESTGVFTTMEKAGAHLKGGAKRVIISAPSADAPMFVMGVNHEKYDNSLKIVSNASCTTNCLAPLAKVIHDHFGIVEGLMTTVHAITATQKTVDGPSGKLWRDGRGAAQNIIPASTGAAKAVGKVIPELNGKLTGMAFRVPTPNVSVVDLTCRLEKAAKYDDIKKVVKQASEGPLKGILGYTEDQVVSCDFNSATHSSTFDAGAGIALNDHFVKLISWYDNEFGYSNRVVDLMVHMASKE
Description: FIG. 21a-21h illustrates the mass spectrometric analysis of an in vitro reaction of GAPDH with EFAD-2. Four residues were detected and confined as being targets for EfAD-2 in treated rabbit GAPDH. The peptides were alkylated as Cys244 (a), His163 (b), Cys149 (c) and His328 (d). Upper panels show EFAD-2 modified peptides and lower panels show spectra from corresponding native peptide.
To more specifically test the binding of EFADs to nucleophilic residues in proteins, we tested whether GAPDH was alkylated by EFADs. This enzyme is a well-characterized target for electrophiles and becomes easily inactivated by nitrosylation, oxidation or nucleophilic addition.

RAW264.7 cells [4] = test: Cytokine levels (IL-6, MCP-1, IL-10) in Kdo2+IFNγ-activated RAW264.7 cells; assay type: cell-based, murine
RAW264.7 cells [5] = test: Fatty acid supplementation study in activated RAW264.7 cells; assay type: cell-based, murine; settings: 32 μM fatty acid for 3 days, then Kdo2 + IFNγ, 20 h
Description: (a) A characteristic BME electrophile adduct fragmentation pattern. showing the major neutral loss of 78 amu (corresponding to the loss of BME) is represented by the enhanced product ion analysis of EFAD-2. (b) RAW264.7 cells were grown for 3 days in DMEM and 10% FBS supplemented with 32 μM of the indicated fatty acid. On the third day cells were activated with Kdo2 (0.5 μg/ml)) and IFNγ (200 U/ml) and EFAD-2 levels were quantified 20 h post activation. (c) Diagram of NaBH4 reduction of oxo-group to an alcohol group. (d) MRM scans monitoring for the mlz transition of 343.2/299.2 (oxo-DPA losing CO2) in RAW264.7 cell lysates purified for EFAD-2, non-treated or treated with NaBH4 (upper and lower panel); MRM scans monitoring for the mlz transition of [345.2/327.2 (hydroxy-DPA/neutral loss of H20) in RAW264.7 cell lysates purified for EFAD-2 and treated with NaBH4. (e) MS/MS fragmentation of EFAD-2 purified from activated RAW 264.7 cells and reduced with NaBH4.
FIG. 16a-16b illustrates that EFAD-1 and -3 are derived from the n-3 series of fatty acids. RAW264.7 cells were grown for 3 days in DMEM and 10% FBS supplemented with 32 μM of the indicated fatty acid. On the third day cells were activated with Kdo2 Lipid A (0.5 μg/ml) and IFNγ (200 U/ml) and EFAD-1 and -3 levels were quantified 20 h post activation.
Similarly, the EFAD of DHA (EFAD-1) and the EFAD of DTA (EFAD-3), were identified as mono-oxygenated derivatives of a 22-carbon fatty acid with a total of six and four double bonds, respectively. To elucidate the precursors in vivo, fatty acid supplementation studies were performed. […] Moreover, as illustrated in FIG. 4 EFAD-2 formation is COX-2 dependent.

[6] = Mus musculus, RAW264.7, genistein 25 μM, MAFP 25 μM, ibuprofen 100 μM, 20 h, read-out: Inhibition of EFAD production
[7] = MK886 500 nM, ETYA 25 μM, OKA 50 nM, indomethacin 25 μM, diclofenac 1 μM, NS-398 4 μM, 20 h

| SMILES | Effect of inhibitor on EFAD-1 formation ([1]; 20 h) | Effect of inhibitor on EFAD-2 formation ([1]; 20 h) | Effect of inhibitor on EFAD-3 formation ([1]; 20 h) | Effect of inhibitor on EFAD-4 formation ([1]; 20 h) | Effect of inhibitor on EFAD-6 formation ([1]; 20 h) | Effect on EFAD formation (in words) [1, 7] | Effect of inhibitor on EFAD-5 formation ([1]; 20 h) | further results |
| --- | --- | --- | --- | --- | --- | --- | --- | --- |
| CC(C)Cc1ccc(C(C)C(=O)O)cc1 (racemic) [Ibuprofen] | ↓ | ↓ | ↓ | ↓ | ↓ | – | – | inhibition at 100 µM [1, 6]: > 80%; Effect of inhibitor on EFAD-1 formation ([1]; 20 h, listed as ibuprofen): no significant effect |
| CC/C=C\CC(=O)C=C/C=C\C/C=C\C/C=C\C/C=C\CCC(=O)O [17-oxoDHA, 17-oxo-(4Z,7Z,10Z,13Z,15A,19Z)-docosa-4,7,10,13,15,19-hexanoic acid] | – | – | – | – | – | – | – | Reduction of nitrite production ([2]; 20 μM): ~70%; iNOS induction and accumulation of nitrite in the cell media [2]: dose-dependent inhibition; Nrf2 nuclear accumulation [3]: promoted dose-dependent; also recorded: promoting nuclear accumulation of Nrf2; Expression of HO-1 and Nqo1 [3]: promoted dose-dependent; also recorded: promoting; Adduct formation with GAPDH residues (rabbit GAPDH): covalently bind Cys and His residues; IFNγ and LPS-induced cytokine production (RAW264.7 cells [4]): inhibited IFNγ and LPS-induced cytokine production in a dose-dependent manner |
| CC/C=C\CC(=O)C=C/C=C\C/C=C\C/C=C\CCCCCC(=O)O [17-oxoDPA, 17-oxo-(7Z,10Z,13Z,15A,19Z)-docosa-7,10,13,15,19-pentanoic acid] | – | – | – | – | – | – | – | Reduction of nitrite production ([2]; 25 μM): ~70%; iNOS induction and accumulation of nitrite in the cell media [2]: dose-dependent inhibition; Nrf2 nuclear accumulation [3]: promoted dose-dependent; also recorded: promoting nuclear accumulation of Nrf2; Expression of HO-1 and Nqo1 [3]: promoted dose-dependent; also recorded: promoting; Adduct formation with GAPDH residues (rabbit GAPDH): covalently bind Cys and His residues; IFNγ and LPS-induced cytokine production (RAW264.7 cells [4]): inhibited IFNγ and LPS-induced cytokine production in a dose-dependent manner |
| CC/C=C/C/C=C/C/C=C/C/C=C\C/C=C/C/C=C/CCC(=O)O [DHA, (4E,7E,10Z,13E,16E,19E)-docosa-4,7,10,13,16,19-hexanoic acid] | – | – | – | – | – | – | – | EFAD-1 formation after fatty acid supplementation (RAW264.7 cells [5]): increased; EFAD-2 formation after fatty acid supplementation (RAW264.7 cells [5]): did not increase |
| O=C(O)Cc1ccccc1Nc1c(Cl)cccc1Cl [Diclofenac] | ↓ | ↓ | ↓ | ↓ | ↓ | completely abolish | ↓ | – |
| CC/C=C\C/C=C\C/C=C\C/C=C\C/C=C\CCCC(=O)O [EPA, (5Z,8Z,11Z,14Z,17Z)-eicosa-5,8,11,14,17-pentanoic acid] | – | – | – | – | – | – | – | EFAD-2 formation after fatty acid supplementation (RAW264.7 cells [5]): significantly increased |
| CCCCCC#CCC#CCC#CCC#CCCCC(=O)O [ETYA, Eicosatetraynoic acid] | ↓ | ↓ | ↓ | ↓ | ↓ | strongly inhibit | ↓ | – |
| COc1ccc2c(c1)c(CC(=O)O)c(C)n2C(=O)c1ccc(Cl)cc1 [Indomethacin] | ↓ | ↓ | ↓ | ↓ | ↓ | completely abolish | ↓ | – |
| CC(C)c1ccc2c(c1)c(SC(C)(C)C)c(CC(C)(C)C(=O)O)n2Cc1ccc(Cl)cc1 [MK886] | – | – | – | – | – | no significant effect | – | – |
| CS(=O)(=O)Nc1ccc([N+](=O)[O-])cc1OC1CCCCC1 [NS-398] | – | – | – | – | – | abolished | – | – |
| C=C1[C@@H](O)[C@@H]2O[C@]3(CC[C@H](/C=C/[C@@H](C)[C@@H]4CC(C)=C[C@@]5(O[C@H](C[C@@](C)(O)C(=O)O)CC[C@H]5O)O4)O3)CC[C@H]2O[C@@H]1[C@@H](O)C[C@H](C)[C@H]1O[C@@]2(CCCCO2)CC[C@H]1C [OKA, okadaic acid] | – | – | – | – | – | – | – | Effect on EFAD formation (in words) [1]: slight increase |
| O=c1c(-c2ccc(O)cc2)coc2cc(O)cc(O)c12 [genistein] | ↓ | ↓ | ↓ | ↓ | ↓ | – | ↓ | inhibition at 25 µM [1, 6]: > 50% |
| CC/C=C\C/C=C\C/C=C\CCCCCCCC(=O)O [α-linolenic acid] | – | – | – | – | – | – | – | EFAD-2 formation after fatty acid supplementation (RAW264.7 cells [5]): significantly increased |
